# Where two headings read alike, the source gives them in different places.
# Assays:
# human α2AAR [1] = target: T1, human α2AAR (Homo sapiens (Human), UniProt P08913); test: Gαi G protein activation, BRET biosensor assay in HEK293T cells; conditions: for Emax: HEK-293T
# Description: (§1) Bioluminescense resonance energy transfer. G protein mediated activation of human α2AAR and D2long was monitored with Gαi1-RLucII (71, 72) together with Gβ1 and Gγ1-GFP10. Arrestin recruitment was performed by enhanced bystander BRET using CAAX-rGFP and β-arrestin-2-RLucII as biosensors (all biosensors are provided from M. Bouvier, Université de Montréal, Canada) (71, 73) in the presence of GRK2 as described (66, 74). In brief, HEK293T cells were transfected with a total amount of 3.3 μg DNA per 10^6 cells using linear polyethyleneimine (PEI, Polysciences, 3:1 PEI:DNA ratio) and transferred into 96-well half-area plates (Greiner, Frickenhausen, Germany) at a density of 10,000 cells per well and incubated for 48 hrs. Medium was exchanged with PBS (Hank's balanced salt solution) and cells were stimulated with ligands at 37° C. for 10 min for Gαi stimulation or arrestin recruitment, respectively.
# [2] = target: ALPHA-2A ADRENERGIC RECEPTOR (Homo sapiens (Human), UniProt P08913); test: Gi recruitment (G protein); type: cell-based; conditions: Gi recruitment
# human α2AAR [3] = target: T1, human α2AAR; test: β-arrestin-2 recruitment, BRET biosensor assay in HEK293T cells; conditions: HEK-293T
# Description: as §1
# human α2AAR [4] = target: T1, human α2AAR; test: α2AAR internalization assay with rGFP-CAAX and rGFP-FYVE biosensors; type: cell-based; conditions: α2AAR-RlucII/rGFP-CAAX biosensor
# Description: Human α2AAR internalization was evaluated by measuring the disappearance of hα2AAR-RlucII from the plasma membrane labeled with rGFP-CAAX and its relocalization in endosome labeled with rGFP-FYVE (39).
# For concentration-response curves, BRET signal was measured after 30 min incubation. Plates were read on a Spark microplate reader (Tecan; Mannedorf, Switzerland) using the BRET2 manufacturer settings.
# [5] = Metabolic stability in male rat liver microsomes; type: in vitro ADME; conditions: 1 hour
# Description: Metabolic stability studies. Metabolic stability of the test compounds was assessed using male pooled rat liver microsomes (Sprague Dawley, Sigma Aldrich) as previously described (93, 94). The reactions were carried out in 2 mL polyethylene tubes on a rotator carousel (Stuart™ SB3) in an incubator at 37° C. […] Transformation reactions were initiated by the addition of 50 μL of cofactor solution (NADPH, Carl Roth, final concentration 1 mM). […] Precipitated protein was removed by centrifugation (1 min, 16,000 rcf) and the supernatants were analysed by HPLC/MS on a Thermo Scientific Dionex Ultimate 3000 HPLC system equipped with a Zorbax Eclipse XDB-C8 column (4.6×150 mm, 5 μm), a DAD detector (210 nm, 230 nm, 254 nm, 310 nm), and a BRUKER amaZon SL mass spectrometer with ESI source. The following binary eluent system (methanol in water+0.1% (v/v) formic acid) was employed: 10% for 1 min, 10% to 100% in 20 min, 100% for 5 min, 100% to 10% in 2 min, 10% for 2 min, flow 0.4 mL/min. […] Control experiments were conducted in the absence of cofactor solution to determine non-specific binding to matrix. The integral (AUC) of the extracted ion chromatograms (EIC) was used to analyze the concentration of the remaining substrates. […]
# α2AAR F427^7.39 mutant = α2AAR F427^7.39 mutant (Homo sapiens (Human), UniProt P08913, F427A); test: Gi activation (BRET) at α2AAR F427^7.39 mutant; type: cell-based
# Description: Investigating the sensitivity of selected ligands to the receptor mutants α2AAR-D128^3.32A, α2AAR-D128^3.32T, α2AAR-D128^3.32L, α2AAR-S215^5.42A, α2AAR-Y409^6.55A, α2AAR-Y409^6.55T, α2AAR-Y409^6.55F, α2AAR-F427^7.39F, α2AAR-Y431^7.43A, and α2AAR-Y431^7.43F was determined by monitored G protein stimulation as described above transfecting the appropriate receptor together with Gαi1-RLucII and Gβ1/Gγ1-GFP10. […] Three to ten experiments were done in duplicate.
# The sensitivity of selected ligands to the receptor mutants α2AAR-D128^3.32A, α2AAR-D128^3.32T, α2AAR-D128^3.32L, α2AAR-S215^5.42A, α2AAR-Y409^6.55A, α2AAR-Y409^6.55T, α2AAR-Y409^6.55F, α2AAR-F427^7.39F, α2AAR-Y431^7.43A, and α2AAR-Y431^7.43F was monitored by G protein activation as described above transfecting the appropriate receptor together with Gαi1-RLucII and Gβ1/Gγ2-GFP10. […] Similarly, the effect of the α2AAR-D128^3.32A, α2AAR-S215^5.42A, α2AAR-Y409^6.55A, α2AAR-Y409^6.55F, α2AAR-F427^7.39F, α2AAR-Y431^7.43A, and α2AAR-Y431^7.43F mutations on arrestin recruitment was evaluated as described above transfecting the appropriate receptor together with CAAX-rGFP, GRK2 and β-arrestin-2-RLucII. Data was analyzed as ligand induced changes in BRET compared to vehicle (deltaBRET). Three to seven experiments were done in duplicate.
# human α2AAR [6] = target: T1, human α2AAR; test: Radioligand competition binding to human α2AAR (HEK293T membranes, [3H]RX82,1002); conditions: human α2AAR
# analgesia in vivo = conditions: result in words, Table 6
# human α2AAR [7] = target: T1, human α2AAR; test: DiscoverX HitHunter cAMP G-protein activation assay
# Description: DiscoverX HitHunter cAMP G-protein activation assay. […] Freezer stock cAMP Hunter cell lines were expanded, then seeded in a total volume of 20 uL into white walled, 384-well microplates and incubated at 37° C. prior to testing. For agonist determination, cells were incubated with compound samples in the presence of EC80 forskolin to induce response. Media was aspirated from cells and replaced with 15 uL 2:1 HBSS/10 mM Hepes: cAMP XS+Ab reagent. Intermediate dilution of sample stocks was performed to generate 4× sample in assay buffer containing 4× EC80 forskolin. […] Finally assay vehicle concentration was 1%. After sample incubation assay signal was generated through incubation with 20 uL cAMP XS+ED/CL lysis cocktail for one hour followed by incubation with 20 uL cAMP XS+EA reagent for three hours at room temperature. Microplates were read following signal generation with a PerkinElmer Envision Instrument for chemiluminescent signal detection. Compound activity was analyzed using CBIS data analysis suite. For Gi agonist mode, percentage activity is calculated using the following formula: % Activity=100%×(1−(mean RLU of test sample−mean RLU of MAX control)/(mean RLU of vehicle control−mean RLU of MAX control)). […] Each measurement was done in duplicate.
# DiscoverX HitHunter cAMP G-protein activation assay. […] Freezer stock cAMP Hunter cell lines were expanded, then seeded in a total volume of 20 μL into white walled, 384-well microplates and incubated at 37° C. prior to testing. For agonist determination, cells were incubated with compound samples in the presence of EC50 forskolin to induce response. Media was aspirated from cells and replaced with 15 μL 2:1 HBSS/10 mM Hepes: cAMP XS+Ab reagent. Intermediate dilution of sample stocks was performed to generate 4× sample in assay buffer containing 4× EC80 forskolin. […] Finally assay vehicle concentration was 1%. After sample incubation assay signal was generated through incubation with 20 μL cAMP XS+ED/CL lysis cocktail for one hour followed by incubation with 20 μL cAMP XS+EA reagent for three hours at room temperature. Microplates were read following signal generation with a PerkinElmer Envision Instrument for chemiluminescent signal detection. Compound activity was analyzed using CBIS data analysis suite. For Gi agonist mode, percentage activity is calculated using the following formula: % Activity=100%×(1−(mean RLU of test sample−mean RLU of MAX control)/(mean RLU of vehicle control−mean RLU of MAX control)). […] Each measurement was done in duplicate.
# ALPHA-2A ADRENERGIC RECEPTOR, sequence (P08913 whole entry): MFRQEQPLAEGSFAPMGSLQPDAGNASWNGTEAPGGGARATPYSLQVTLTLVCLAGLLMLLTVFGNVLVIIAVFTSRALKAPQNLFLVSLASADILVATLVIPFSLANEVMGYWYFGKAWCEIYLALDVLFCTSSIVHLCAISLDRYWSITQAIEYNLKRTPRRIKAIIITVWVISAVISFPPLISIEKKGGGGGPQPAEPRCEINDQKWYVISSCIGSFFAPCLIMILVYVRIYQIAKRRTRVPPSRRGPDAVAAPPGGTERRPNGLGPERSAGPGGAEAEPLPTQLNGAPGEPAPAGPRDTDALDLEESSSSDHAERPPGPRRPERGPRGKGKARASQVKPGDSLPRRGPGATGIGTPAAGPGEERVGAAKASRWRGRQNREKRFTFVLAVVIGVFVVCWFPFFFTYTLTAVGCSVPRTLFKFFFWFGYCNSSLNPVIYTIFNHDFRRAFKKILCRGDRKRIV
# T1 sequence (P08913 whole entry): as above
# α2AAR F427^7.39 mutant, sequence (P08913 whole entry F427A): as the sequence (P08913 whole entry) above, with F427A counted along it
smiles,measurement,setting,value
"Fc1cccc2c(Nc3ccncc3)cccc12 [Compound 7075, N-(5-fluoronaphthalen-1-yl)pyridin-4-amine]",Fold increased Gi potency compared to ‘9087,human α2AAR [1],13 fold
same,EC50,"human α2AAR [1]; Gi EC50 ± SE, BRET biosensor, human α2AAR (Table 3)",4.1 nM
same,EC50,"human α2AAR [1]; Gαi EC50, BRET biosensor, HEK293T, human α2AAR",4.1 nM
same,Emax,human α2AAR [1]; read-out: Gi Emax ± SEM,93%
same,Emax,human α2AAR [1]; read-out: Gαi Emax,93%
same,functional classification (agonist / weak agonist),"[2]; Table 6, result in words",agonist
same,EC50,"[2]; Table 6, read-out: EC50",4.1 nM
same,Emax,"[2]; Table 6, read-out: Emax (%)",89%
same,Emax,human α2AAR [3]; read-out: β-Arr-2 Emax @ 0.1 mM,10%
same,Emax at 100 µM,human α2AAR [3]; read-out: β-arrestin-2 Emax @ 0.1 mM,10 ± 7%
same,Disappearance of α2AAR from the plasma membrane (internalization),human α2AAR [4],no effect
same,"Metabolic stability, compound remaining",[5],remain largely unmodified after 1 hour
same,Gi activity at F427^7.39 substitution,α2AAR F427^7.39 mutant,eliminated
same,Ki,"human α2AAR [6]; mean ± SEM (Table 3), read-out: Ki",37 ± 5.1 nM
same,Ki,"human α2AAR [6]; mean ± s.e.m., read-out: Ki for α2AAR",37 ± 5.1 nM
same,analgesic in vivo,analgesia in vivo,analgesic in vivo
same,EC50,human α2AAR [7],18 nM
same,Emax,human α2AAR [7]; read-out: Gi/o Emax,96%

# — patent publication US20250032476A1, “ALPHA-2A ADRENERGIC RECEPTOR MODULATORS AND USES THEREOF” (The Regents of the University of California, priority 2021, published 2025)
